Results reported in patent US5846823A, “Expression of human D4 dopamine receptors in stable cell lines” (Allelix Biopharmaceuticals, priority 1996, dated 1998).

Molecular target: T1, human D4 receptor (Homo sapiens, UniProt P21917, DEL265-296)
T1 construct: expressed in transfected cells
T1 sequence (P21917 with tags, fused parts or gaps DEL265-296): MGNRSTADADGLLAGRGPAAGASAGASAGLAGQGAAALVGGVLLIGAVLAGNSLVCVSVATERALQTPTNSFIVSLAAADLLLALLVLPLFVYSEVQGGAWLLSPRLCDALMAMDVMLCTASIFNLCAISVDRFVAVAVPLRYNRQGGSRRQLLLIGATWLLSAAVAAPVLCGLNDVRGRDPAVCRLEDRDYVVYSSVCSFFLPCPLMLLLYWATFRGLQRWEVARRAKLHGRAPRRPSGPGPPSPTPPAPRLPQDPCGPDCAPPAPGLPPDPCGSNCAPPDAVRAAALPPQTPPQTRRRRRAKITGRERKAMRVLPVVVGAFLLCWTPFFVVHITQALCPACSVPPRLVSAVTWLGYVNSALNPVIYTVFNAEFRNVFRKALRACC
Experiment: [3H]Spiperone ligand binding assay (Scatchard analysis) on membranes of stable D4 cell line
Conditions: stably expressed human D4 receptor, Scatchard analysis (FIG. 4)
Protocol: Cell membranes were prepared from 150 mM tissue culture dishes by suspending the cells in assay buffer [50 mM Tris-HCl, pH 7.4 containing 5 mM EDTA, 1.5 mM CaCl2, 5 mM MgCl2, 5 mM KCl, 120 NaCl]. The cells were homogenized using a Teflon pestle. Unbroken cells and nuclei were pelleted at 39,000×g for 15 minutes and the resulting pellet was resuspended in assay buffer at a concentration of 150-250 μg protein/ml.
Assays were terminated by washing 3×4 ml with cold 50 mM Tris-HCl, pH 7.4, followed by rapid filtration through a cell harvester and filters were monitored for tritium using the L56000SC (Beckman) counter. Binding data was analyzed using the GRAFIT software package.

## O=C(CCCN1CCC2(CC1)C(=O)NCN2c1ccccc1)c1ccc(F)cc1 [[^3 H]-labelled spiperone, spiperone]
  maximum spiperone-binding of the D4 receptor: 4,344 fmol/mg protein
